pIC50: −log10 of the molar value.
Test system: 361931-004-R-J1-PDC multicell spheroid viability
Assay: Anticancer human tumor 361931-004-R-J1-PDC patient-derived colon adenocarcinoma cell line growth inhibition [PI3K]
Details: for viability, T/C: stronger effect = lower value
Text: Combinatorial screen of targeted agents with the PI3K inhibitors inavolisib, alpelisib, duvelisib, and copanlisib in multi-cell type tumor spheroids
A high-throughput screen of multi-cell type tumor spheroids was designed to identify active combinations of targeted small molecules and PI3K pathway inhibitors. Complex spheroids include a stromal component modeled by human endothelial cells (HUVEC) and fibroblasts modeled by human mesenchymal stem cells (MSCs). The concentration ranges selected for each drug and investigational agent were based upon clinically achievable concentrations if the clinical Cmax of the agent was known.
Compounds. The drugs and investigational agents: inavolisib (NSC800729), alpelisib (NSC765974), duvelisib (NSC772469), copanlisib (NSC816437), ipatasertib (NSC767898), afuresertib (NSC778305), talazoparib (NSC767125), sapanisertib (NSC764658), selumetinib (NSC741078), tovorafenib (DAY101, NSC766906), vemurafenib (NSC761431), ravoxertinib (NSC781343), sotorasib (NSC818433), MRTX1133 (NSC 836407), abemaciclib (NSC 768073), palbociclib (NSC758247), venetoclax (NSC 766270), SY5609 (NSC837396), enzalutamide (NSC755605), and darolutamide (NSC825331), were obtained from the National Cancer Institute (NCI) Developmental Therapeutics Program Chemical Repository. The FDA-approved anticancer drug set is available from the NCI Developmental Therapeutics Program. […] The stock solutions were prepared in dimethyl sulfoxide (DMSO, Sigma-Aldrich, St. Louis, MO, cat. D2650) at 800-fold the tested concentration and stored at -70 degrees C prior to their use. All drugs and investigational agents were tested over a range starting from a high concentration at or near the clinical Cmax and decreasing in half-log increments. If the clinical Cmax for an agent had not been determined, the highest concentration tested was 10 microM.
Cell Culture. All cells were maintained in an incubator at 37 degrees C and 5% CO2 with 95% humidity. The PDC lines were cultured according to standard operating procedures established by the NCI PDMR (https://pdmr.cancer.gov/sops/default.htm). All PDCs were thawed and cultured in Matrigel-coated flasks prepared with a working solution of 1X Ham's F-12 nutrient mix, without supplementation (Invitrogen, Waltham, MA, cat. 11765054), 100 U/mL penicillin-streptomycin (Invitrogen, cat. 15140122), and 2.5% Matrigel (Corning Inc., Corning, NY, cat. 354248) for the first three passages. The 354836-022-R-J1-PDC, 475296-252-R-J1-PDC, and 997726-040-R-J2-PDC lines were cultured in 6A media, which includes advanced DMEM/F-12 (Thermo Fisher Scientific, cat. 12634028), 10 mM HEPES (Thermo Fisher Scientific, cat. 15630080), 1X GlutaMAX supplement (Thermo Fisher Scientific, cat. 35050061), 0.1 mg/mL primocin (InvivoGen, San Diego, CA, cat. ant-pm-2), 10% defined fetal bovine serum, heat inactivated (HyClone Laboratories Inc., Logan, UT, cat. SH30070.03HI), 50% L-WRN conditioned media (ATCC, cat. CRL-3276), 1.25 mM N-Acetyl-L-cysteine (Sigma-Aldrich, cat. A9165), 10 mM nicotinamide (Sigma-Aldrich, cat. N0636), 1X B-27 supplement (Thermo Fisher Scientific, cat. 17504044), 1X N-2 supplement (Thermo Fisher Scientific, cat. 17502048), and 10 microM Y-27632 dihydrochloride (Tocris Bioscience, Bristol, United Kingdom, cat. 1254). The 624824-186-R-J2-PDC line was cultured in 6C/Colon 1B media, which includes all 6A media components plus 50 ng/mL human EGF recombinant protein (Thermo Fisher Scientific, cat. PHG0311). […]
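Further: spheroids exposed to agents for seven days before readout.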

With CC(C)NCC(C(=O)N1CCN(c2ncnc3c2C(C)CC3O)CC1)c1ccc(Cl)cc1 (centres undefined) + COc1c(OCCCN2CCOCC2)ccc2c3n(c(=NC(=O)c4cnc(N)nc4)nc12)CCN3 the pIC50 (curve of first compound, second compound 0.00316 µM) was 5.48, the pIC50 (curve of first compound, second compound 0.01 µM) was 5.54 and the pIC50 (curve of first compound, second compound 0.0316 µM) was 5.63. It also gave a pIC50 (curve of first compound, second compound 0.1 µM) of 5.77, a pIC50 (curve of first compound, second compound 0.316 µM) of 6.79 and a pIC50 (curve of first compound, second compound 1 µM) greater than 7.50. It also gave a viability, T/C (second compound 0.00316 µM, first compound 0.0316 µM) of 102%, a viability, T/C (second compound 0.00316 µM, first compound 0.1 µM) of 97.8% and a viability, T/C (second compound 0.00316 µM, first compound 0.316 µM) of 95.2%. The viability, T/C (second compound 0.00316 µM, first compound 1 µM) was 86.9%, the viability, T/C (second compound 0.00316 µM, first compound 3.16 µM) was 50.9% and the viability, T/C (second compound 0.00316 µM, first compound 10 µM) was 19.5%. It also gave a viability, T/C (second compound 0.01 µM, first compound 0.0316 µM) of 99%, a viability, T/C (second compound 0.01 µM, first compound 0.1 µM) of 100% and a viability, T/C (second compound 0.01 µM, first compound 0.316 µM) of 90.9%. It also gave a viability, T/C (second compound 0.01 µM, first compound 1 µM) of 78.7%, a viability, T/C (second compound 0.01 µM, first compound 3.16 µM) of 46.9% and a viability, T/C (second compound 0.01 µM, first compound 10 µM) of 26.6%. For the same compound, the viability, T/C (second compound 0.0316 µM, first compound 0.0316 µM) was 95%, the viability, T/C (second compound 0.0316 µM, first compound 0.1 µM) was 89.8% and the viability, T/C (second compound 0.0316 µM, first compound 0.316 µM) was 94.2%. It also gave a viability, T/C (second compound 0.0316 µM, first compound 1 µM) of 70.6%, a viability, T/C (second compound 0.0316 µM, first compound 3.16 µM) of 43.6% and a viability, T/C (second compound 0.0316 µM, first compound 10 µM) of 25.7%. It also gave a viability, T/C (second compound 0.1 µM, first compound 0.0316 µM) of 89.9%, a viability, T/C (second compound 0.1 µM, first compound 0.1 µM) of 76.9% and a viability, T/C (second compound 0.1 µM, first compound 0.316 µM) of 71%. For the same compound, the viability, T/C (second compound 0.1 µM, first compound 1 µM) was 60.5%, the viability, T/C (second compound 0.1 µM, first compound 3.16 µM) was 39% and the viability, T/C (second compound 0.1 µM, first compound 10 µM) was 21.9%. For the same compound, the viability, T/C (second compound 0.316 µM, first compound 0.0316 µM) was 58%, the viability, T/C (second compound 0.316 µM, first compound 0.1 µM) was 52.3% and the viability, T/C (second compound 0.316 µM, first compound 0.316 µM) was 47.4%. The viability, T/C (second compound 0.316 µM, first compound 1 µM) was 36.8%, the viability, T/C (second compound 0.316 µM, first compound 3.16 µM) was 34.5% and the viability, T/C (second compound 0.316 µM, first compound 10 µM) was 21.3%. The viability, T/C (second compound 1 µM, first compound 0.0316 µM) was 26%, the viability, T/C (second compound 1 µM, first compound 0.1 µM) was 21.8% and the viability, T/C (second compound 1 µM, first compound 0.316 µM) was 20.8%. For the same compound, the viability, T/C (second compound 1 µM, first compound 1 µM) was 20.4%, the viability, T/C (second compound 1 µM, first compound 3.16 µM) was 17.6% and the viability, T/C (second compound 1 µM, first compound 10 µM) was 11.6%.

With CC(Nc1ncnc2nc[nH]c12)c1cc2cccc(Cl)c2c(=O)n1-c1ccccc1 (centres undefined) the viability, T/C (compound 0.0316 µM) was 106% [middle of 8 runs], the viability, T/C (compound 0.1 µM) was 102% [middle of 8 runs] and the viability, T/C (compound 0.316 µM) was 105% [middle of 8 runs]. For the same compound, the viability, T/C (compound 1 µM) was 104% [middle of 8 runs], the viability, T/C (compound 3.16 µM) was 103% [middle of 8 runs] and the viability, T/C (compound 10 µM) was 102% [middle of 8 runs]. The pIC50 (compound alone, run of 05/09/2023) was less than 5.00.

Source: PubChem BioAssay AID1963979 (Molecular Pharmacology Branch, DTP, NCI, 2024)
